Source: patent US11760741B2, “Pro-drugs of eliglustat” (KASHIV BIOSCIENCES, LLC, priority 2018, dated 2023)
Where a name gives a salt, the structure may show the parent alone.

Assay: not given
Settings: human, microsomes
For `CCCCCCCC(=O)N[C@H](CN1CCCC1)[C@H](OC(=O)c1ccccc1)c1ccc2c(c1)OCCO2` [I-a Hemitartrate salt, (1R,2R)-1-(2,3-dihydrobenzo[b][1,4]dioxin-6-yl)-2-octanamido-3-(pyrrolidin-1-yl)propyl benzoate], the “HLM stability (half-life, minutes)” value was <30 min.
In the case of `CCCCCCCC(=O)N[C@H](CN1CCCC1)[C@H](OC(C)=O)c1ccc2c(c1)OCCO2` [I-e Hemitartrate salt, (1R,2R)-1-(2,3-dihydrobenzo[b][1,4]dioxin-6-yl)-2-octanamido-3-(pyrrolidin-1-yl)propyl acetate], the “HLM stability (half-life, minutes)” value is reported as <30 min.
With `CCCCCCCC(=O)N[C@H](CN1CCCC1)[C@H](OC(=O)CC)c1ccc2c(c1)OCCO2` [I-f Hemitartrate salt, (1R,2R)-1-(2,3-dihydrobenzo[b][1,4]dioxin-6-yl)-2-octanamido-3-(pyrrolidin-1-yl)propyl propionate] the “HLM stability (half-life, minutes)” value was <30 min.

Assay: in vitro
Settings: human, microsomes, pH 7.4
For `CCCCCCCC(=O)N[C@H](CN1CCCC1)[C@H](OC(=O)Cc1ccccc1)c1ccc2c(c1)OCCO2` [I-b Hemitartrate salt, (1R,2R)-1-(2,3-dihydrobenzo[b][1,4]dioxin-6-yl)-2-octanamido-3-(pyrrolidin-1-yl)propyl 2-phenylacetate], the half-life was < 30 min.
With `CCCCCCCC(=O)N[C@H](CN1CCCC1)[C@H](OC(=O)c1ccccc1N)c1ccc2c(c1)OCCO2` [I-v, (1R,2R)-1-(2,3-dihydrobenzo[b][1,4]dioxin-6-yl)-2-octanamido-3-(pyrrolidin-1-yl)propyl 2-aminobenzoate] the half-life was < 30 min.

Assay: Metabolic stability of prodrugs in human liver microsomes
Settings: pH 7.4
In the case of `CCCCCCCC(=O)N[C@H](CN1CCCC1)[C@H](O)c1ccc2c(c1)OCCO2` [Eliglustat, N-((1R, 2R)-1-(2,3-dihydrobenzo[b] [1,4]dioxin-6-yl)-1-hydroxy-3-(pyrrolidin-1-yl)propan-2-yl) octanamide], the half-life is reported as 30 min.
With `CCCCCCCC(=O)N[C@H](CN1CCCC1)[C@H](OC(=O)CCCCC)c1ccc2c(c1)OCCO2` [I-aa, (1R,2R)-1-(2,3-dihydrobenzo[b][1,4]dioxin-6-yl)-2-octanamido-3-(pyrrolidin-1-yl)propyl hexanoate] the half-life was < 30 min.
For `CCCCCCCC(=O)N[C@H](CN1CCCC1)[C@H](OC(=O)c1cccnc1)c1ccc2c(c1)OCCO2` [I-c Hemitartrate salt, (1R,2R)-1-(2,3-dihydrobenzo[b][1,4]dioxin-6-yl)-2-octanamido-3-(pyrrolidin-1-yl)propyl nicotinate], the half-life was < 30 min.
For `CCCCCCCC(=O)N[C@H](CN1CCCC1)[C@H](OC(=O)c1ccccc1O)c1ccc2c(c1)OCCO2` [I-d Hemitartrate salt, (1R,2R)-1-(2,3-dihydrobenzo[b][1,4]dioxin-6-yl)-2-octanamido-3-(pyrrolidin-1-yl)propyl 2-hydroxybenzoate], the half-life was < 30 min.
With `CCCCCCCC(=O)N[C@H](CN1CCCC1)[C@H](OC(=O)C(C)C)c1ccc2c(c1)OCCO2` [I-g Hemitartrate salt, (1R,2R)-1-(2,3-dihydrobenzo[b][1,4]dioxin-6-yl)-2-octanamido-3-(pyrrolidin-1-yl)propyl isobutyrate] the half-life was < 30 min.
For `CCCCCCCC(=O)N[C@H](CN1CCCC1)[C@H](OC(=O)C(C)(C)C)c1ccc2c(c1)OCCO2` [I-h Hemitartrate salt, (1R,2R)-1-(2,3-dihydrobenzo[b][1,4]dioxin-6-yl)-2-octanamido-3-(pyrrolidin-1-yl)propyl pivalate], the half-life was < 30 min.
For `CCCCCCCC(=O)N[C@H](CN1CCCC1)[C@H](OC(=O)CCCCCCC)c1ccc2c(c1)OCCO2` [I-i Hemitartrate salt, (1R,2R)-1-(2,3-dihydrobenzo[b][1,4]dioxin-6-yl)-2-octanamido-3-(pyrrolidin-1-yl)propyl octanoate], the half-life was < 30 min.
`CCCCCCCCCC(=O)O[C@H](c1ccc2c(c1)OCCO2)[C@@H](CN1CCCC1)NC(=O)CCCCCCC` [I-j Hemitartrate salt, (1R,2R)-1-(2,3-dihydrobenzo[b][1,4]dioxin-6-yl)-2-octanamido-3-(pyrrolidin-1-yl)propyl decanoate] showed a half-life of 63 min.
`CCCCCCCCCCCC(=O)O[C@H](c1ccc2c(c1)OCCO2)[C@@H](CN1CCCC1)NC(=O)CCCCCCC` [I-k Hemitartrate salt, (1R,2R)-1-(2,3-dihydrobenzo[b][1,4]dioxin-6-yl)-2-octanamido-3-(pyrrolidin-1-yl)propyl dodecanoate] showed a half-life of 70 min.
For `CCCCCCCC(=O)N[C@H](CN1CCCC1)[C@H](OC(=O)[C@H](N)C(C)C)c1ccc2c(c1)OCCO2` [I-l Hydrochloride salt], the half-life was < 30 min.
In the case of `CCCCCCCC(=O)N[C@H](CN1CCCC1)[C@H](OC(=O)[C@@H](N)C(C)C)c1ccc2c(c1)OCCO2` [I-m Hemitartrate salt], the half-life is reported as < 30 min.
With `CCCCCCCC(=O)N[C@H](CN1CCCC1)[C@H](OC(=O)N(CC)CC)c1ccc2c(c1)OCCO2` [I-n Hemitartrate salt, (1R,2R)-1-(2,3-dihydrobenzo[b][1,4]dioxin-6-yl)-2-octanamido-3-(pyrrolidin-1-yl)propyl diethylcarbamate] the half-life was < 30 min.
For `CCCCCCCC(=O)N[C@H](CN1CCCC1)[C@H](OC(=O)CCC(=O)O)c1ccc2c(c1)OCCO2` [I-o, 4-((1R,2R)-1-(2,3-dihydrobenzo[b][1,4]dioxin-6-yl)-2-octanamido-3-(pyrrolidin-1-yl)propoxy)-4-oxobutanoic acid], the half-life was > 90 min.
In the case of `CCCCCCCC(=O)N[C@H](CN1CCCC1)[C@H](OC(=O)OCC)c1ccc2c(c1)OCCO2` [I-p Hemitartrate salt, (1R,2R)-1-(2,3-dihydrobenzo[b][1,4]dioxin-6-yl)-2-octanamido-3-(pyrrolidin-1-yl)propyl ethyl carbonate], the half-life is reported as < 30 min.
In the case of `CCCCCCCC(=O)N[C@H](CN1CCCC1)[C@H](OC(=O)N1CCC(N2CCCCC2)CC1)c1ccc2c(c1)OCCO2` [I-q, (1R,2R)-1-(2,3-dihydrobenzo[b][1,4]dioxin-6-yl)-2-octanamido-3-(pyrrolidin-1-yl)propyl [1,4′-bipiperidine]-1′-carboxylate], the half-life is reported as < 30 min.
For `CCCCCCCC(=O)N[C@H](CN1CCCC1)[C@H](OC(=O)N(C)C)c1ccc2c(c1)OCCO2` [I-r, (1R,2R)-1-(2,3-dihydrobenzo[b][1,4]dioxin-6-yl)-2-octanamido-3-(pyrrolidin-1-yl)propyl dimethylcarbamate], the half-life was < 30 min.
For `CCCCCCCC(=O)N[C@H](CN1CCCC1)[C@H](OC(=O)/C=C/C(=O)O)c1ccc2c(c1)OCCO2` [I-s, (E)-4-((1R,2R)-1-(2,3-dihydrobenzo[b][1,4]dioxin-6-yl)-2-octanamido-3-(pyrrolidin-1-yl)propoxy)-4-oxobut-2-enoic acid], the half-life was 64 min.
Work on `CCCCCCCC(=O)N[C@H](CN1CCCC1)[C@H](OC(=O)CCCC(=O)O)c1ccc2c(c1)OCCO2` [I-t, 5-((1R,2R)-1-(2,3-dihydrobenzo[b][1,4]dioxin-6-yl)-2-octanamido-3-(pyrrolidin-1-yl)propoxy)-5-oxopentanoic acid] yielded a half-life of 65 min.
In the case of `CCCCCCCC(=O)N[C@H](CN1CCCC1)[C@H](OC(=O)NC)c1ccc2c(c1)OCCO2` [I-u Hemitartrate salt, (1R,2R)-1-(2,3-dihydrobenzo[b][1,4]dioxin-6-yl)-2-octanamido-3-(pyrrolidin-1-yl)propyl methylcarbamate], the half-life is reported as < 30 min.
For `CCCCCCCC(=O)N[C@H](CN1CCCC1)[C@H](OC(=O)CN(C)C)c1ccc2c(c1)OCCO2` [I-w, (1R,2R)-1-(2,3-dihydrobenzo[b][1,4]dioxin-6-yl)-2-octanamido-3-(pyrrolidin-1-yl)propyl dimethylglycinate], the half-life was < 30 min.
In the case of `CCCCCCCC(=O)N[C@H](CN1CCCC1)[C@H](OC(=O)CCN1CCOCC1)c1ccc2c(c1)OCCO2` [I-x, (1R,2R)-1-(2,3-dihydrobenzo[b][1,4]dioxin-6-yl)-2-octanamido-3-(pyrrolidin-1-yl)propyl 3-morpholinopropanoate], the half-life is reported as < 30 min.
In the case of `CCCCCCCC(=O)N[C@H](CN1CCCC1)[C@H](OC(=O)CC(=O)O)c1ccc2c(c1)OCCO2` [I-z, 3-((1R,2R)-1-(2,3-dihydrobenzo[b][1,4]dioxin-6-yl)-2-octanamido-3-(pyrrolidin-1-yl)propoxy)-3-oxopropanoic acid], the half-life is reported as > 90 min.
For `CCCCCCCC(=O)N[C@H](CN1CCCC1)[C@H](OC(=O)COCCOCCOC)c1ccc2c(c1)OCCO2` [II-a, (1R,2R)-1-(2,3-dihydrobenzo[b][1,4]dioxin-6-yl)-2-octanamido-3-(pyrrolidin-1-yl)propyl 2-(2-(2-methoxyethoxy)ethoxy)acetate], the half-life was < 30 min.
For `CCCCCCCC(=O)N[C@H](CN1CCCC1)[C@H](OC(=O)CCOCCOCCN)c1ccc2c(c1)OCCO2` [II-b, (1R,2R)-1-(2,3-dihydrobenzo[b][1,4]dioxin-6-yl)-2-octanamido-3-(pyrrolidin-1-yl)propyl 3-(2-(2-aminoethoxy)ethoxy)propanoate], the half-life was > 90 min.
With `CCCCCCCC(=O)N[C@H](CN1CCCC1)[C@H](OS(N)(=O)=O)c1ccc2c(c1)OCCO2` [IV-c, (1R,2R)-1-(2,3-dihydrobenzo[b][1,4]dioxin-6-yl)-2-octanamido-3-(pyrrolidin-1-yl)propyl sulfamate] the half-life was < 30 min.
In the case of `CCCCCCCC(=O)N[C@H](CN1CCCC1)[C@H](OS(=O)(=O)O)c1ccc2c(c1)OCCO2` [IV-d, (1R,2R)-1-(2,3-dihydrobenzo[b][1,4]dioxin-6-yl)-2-octanamido-3-(pyrrolidin-1-yl)propyl hydrogen sulfate], the half-life is reported as > 90 min.
